How the values were obtained:
Type in all cases: cell-based
[1] = system: mock-transfected cells which contained the vector alone; assay: Intracellular cAMP level (EIA) in mock-transfected cells containing the vector alone (control cells); conditions: various concentrations, 37° C. for 15 minutes
Experimental: Intracellular cAMP levels were determined using the method of Zlokarmik et al. (Science 279, 84 (1998)). The intracellular cAMP level in cells that reacted with the ligand was measured to determine the increase of intracellular cAMP level through G proteins bound to the seven-transmembrane receptor.
On the day before the measurement of the intracellular cAMP level, cells were re-plated at a cell density of 4×10^4 cells/well on a poly-D-lysin-coated 96-well plate (Becton Dickinson), and then incubated at 37° C. for another 24 hours. Cells of the stable cell line were rinsed twice with 0.1% BSA (SIGMA) and 1 mM 3-Isobutyl-1-Methylxanthine containing Opti-MEM solution (GIBCO BRL: Opti-MEM-BSA-IBMX solution) (Nacalai Tesque Inc.: IBMX), and then incubated at 37° C. for 20 minutes. After removing the supernatant, Opti-MEM-BSA-IBMX solution containing at various concentrations a steroid hormone, such as progesterone, was added thereto. The resulting mixture was incubated at 37° C. for 15 minutes. Then, the cells were lysed with Lysis Buffer to measure the level of intracellular cAMP.
The measurement of the intracellular cAMP level was carried out using cyclic AMP enzyme immuno-assay (EIA) system (Amersham Pharmacia Biotech) according to the provided manual.

human BG37 [2] = target: T1, human BG37 (Homo sapiens, UniProt Q8TDU6); assay: Bile acid-dependent increase of intracellular cAMP level (HTRF) in cells expressing the human BG37; conditions: cells expressing the human BG37 (HEK/hBG37); reagent at various concentrations, 37° C. for 20 minutes
T1 construct: Human BG37 gene cut out, utilizing the BamHI-EcoRV site, from pCR2.1-BG37ORF was subcloned into the BamHI-EcoRV digested pKT52 vector; expressed in transfected cells
T1 sequence (Q8TDU6 1-330): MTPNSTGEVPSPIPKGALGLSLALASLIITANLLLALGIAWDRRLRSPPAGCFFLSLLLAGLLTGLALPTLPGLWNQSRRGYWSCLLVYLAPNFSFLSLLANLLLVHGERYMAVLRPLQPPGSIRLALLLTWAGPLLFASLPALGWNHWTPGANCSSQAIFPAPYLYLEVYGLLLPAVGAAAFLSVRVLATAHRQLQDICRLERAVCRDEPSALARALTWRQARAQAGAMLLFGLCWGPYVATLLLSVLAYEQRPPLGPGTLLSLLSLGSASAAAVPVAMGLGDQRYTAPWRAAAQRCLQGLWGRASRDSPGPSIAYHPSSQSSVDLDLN
Experimental: The intracellular cAMP level in the presence of a ligand was measured to determine the increase of the intracellular cAMP level through G proteins bound to the seven-transmembrane receptor.
On the day before the measurement of the intracellular cAMP level, cells were re-plated at a cell density of 4×10^4 cells/well on a poly-D-lysin-coated 96-well plate (Becton Dickinson), and then incubated at 37° C. for another 24 hours. Cells of the stable cell line were rinsed twice with 1 mM 3-Isobutyl-1-Methylxanthine (IBMX) (Nacalai Tesque) containing Opti-MEM solution (GIBCO BRL) (Opti-MEM-BSA-IBMX solution), and then incubated at 37° C. for 20 minutes. After removing the supernatant, Opti-MEM-IBMX solution containing a reagent at various concentrations was added thereto. The resulting mixture was incubated at 37° C. for 20 minutes. Then, the cells were lysed with 0.5% Triton X-100 to determine the level of intracellular cAMP.
Measurement of the intracellular cAMP level was carried out using cyclic AMP kit (HTRF) (Nihon Schering) according to the provided manual.

human BG37 [3] = target: T1, human BG37; assay: Assay of intracellular cAMP level (EIA) in human BG37-expressing cells (HEK/hBG37), steroid hormones; conditions: steroid hormone at various concentrations, 37° C. for 15 minutes
Experimental: On the day before the measurement of the intracellular cAMP level, cells were re-plated at a cell density of 4×10^4 cells/well on a poly-D-lysin-coated 96-well plate (Becton Dickinson), and then incubated at 37° C. for another 24 hours.

Structure (SMILES) | intracellular cAMP level (human BG37 [2]) | further results
CC(=O)[C@H]1CC[C@H]2[C@@H]3CCC4=CC(=O)CC[C@]4(C)[C@H]3CC[C@]12C [progesterone] | – | concentration-dependent increase of intracellular cAMP [1]: not observed
C[C@H](CCC(=O)O)[C@H]1CC[C@H]2[C@@H]3[C@H](O)C[C@@H]4C[C@H](O)CC[C@]4(C)[C@H]3CC[C@]12C [chenodeoxycholic acid] | elevated | –
C[C@]12CCC(=O)C=C1CC[C@@H]1[C@@H]2CC[C@]2(C)C(=O)CC[C@@H]12 [androstenedione] | – | intracellular cAMP level (human BG37 [3]): increased in a concentration-dependent manner
C[C@H](CCC(=O)O)[C@H]1CC[C@H]2[C@@H]3[C@H](O)C[C@@H]4C[C@H](O)CC[C@]4(C)[C@H]3C[C@H](O)[C@]12C [cholic acid] | elevated | –
